Data on 1 compound can be found in patent publication US20230272357A1, “METHODS OF GENOME EDITING INCLUDING CONTROLLED OPENING OF CHROMATIN” (Wisconsin Alumni Research Foundation, priority 2021, published 2023).

Common to all, as to type: cell-based, human
Series [1] relates to iPSCs. The series can be described thus: iPSC morphology during long-term culture of edited cells. The conditions noted are these: long-term culture of the edited cells, 6.25 ng/mL TSA.
The next series concerns HIST1H2BJ-GFP locus. The series can be described thus: CRISPR-Cas9 gene editing efficiency by flow cytometry (GFP- cells). The protocol:
SpyCas9 RNP preparation: RNPs were produced by complexing a two-component gRNA to SpyCas9. In brief, tracr-RNA and crRNA were ordered from IDT, suspended in nuclease-free duplex buffer at 100 μM, and stored in single-use aliquots at −20° C. tracrRNA and crRNA were thawed, and 0.0625 μL of each component was mixed 1:1 by volume and annealed by incubation at room temperature for 5 minutes to form a 50 μM sgRNA solution for each well of a 96 well plate. Recombinant sNLS-SpCas9-sNLS Cas9 (Aldevron, 10 mg/mL) was added to the complexed gRNA at a 1:1 molar ratio (1000 ng/well, Total 0.1 μL) and incubated for 5 minutes at room temperature to form RNP.
RNP delivery: iPSCs were singularized using Accutase™ and counted using a Countess® II FL Automated Cell Counter (Thermo Fisher Scientific) with 0.4% Trypan Blue viability stain (Thermo Fisher Scientific). iPSCs were then seeded at 15,000 cells/well on 96 well glass bottom plates (Cellvis) in mTeSR1 (WiCell) and 10 μM ROCK inhibitor (Y27632, Selleckchem), two days before lipofection or electroporation. On the following day, iPSCs were treated with TSA (0-200 ng/mL) for 16-24 hours. iPSC lipofections were performed using 0.5 μL Lipofectamine Stem Cell Reagent/well (1000 ng Cas9/well and sgRNA at 1:1 molar ratio). Cells remained undisturbed for 48 hours and were then passaged 1:4 using ReLeSR™ solution followed by daily mTeSR1 media changes for 4 additional days before downstream analysis.
Flow cytometry and fluorescence activated cell sorting: Flow cytometry was performed on singularized iPSCs using Attune™ Nxt flow cytometer (ThermoFisher Scientific) and analyzed using the FlowJo Software. Ghost Dye™ Red 780, ATTO 550, and GFP fluorescence were detected using 780/60, 585/16, and 530/30 filters in […] positions, respectively. Gates were established by running singularized untransfected iPSCs. The percentage of viable cells was calculated as the ratio of Ghost Dye™ Red 780-cells to the total number of single cells. Transfection efficiency was calculated as the percentage of ATTO 550+ cells to the total number of viable cells on day 2 post-transfection. Gene editing efficiency was calculated as the percentage of GFP-cells to the total number of viable cells on day 6 post-transfection. For the sorting experiments, iPSCs were singularized 6 days post-transfection using Accutase™, washed with PBS+20 μM ROCK inhibitor, centrifuged at 300 g for 5 minutes. Ghost Dye™ Red 780 viability dye (Tonbo Biosciences) was then added at 1:1000 concentration for 20 minutes at room temperature. Cells were washed again with PBS+20 μM ROCK inhibitor, spun down at 300 g for 5 minutes, and resuspended in 300 μL of FACS buffer (PBS+2% BSA+20 μM ROCK inhibitor). GFP-cells were then sorted into tubes containing mTeSR1+20 μM ROCK inhibitor, and seeded onto Matrigel®-coated 6 well polystyrene plates at 100 cells/well to obtain single-cell iPSC clones.
A simple, yet robust, workflow has been developed to introduce mutations in iPSCs without extensive use of deep sequencing (FIG. 1A). A mono-allelic mEGFP tagged HIST1H2BJWTC-11 human iPSC line (tag at C-terminus) was used as it provides two-fold advantages. […] Second, these iPSCs enable in situ live imaging of their cell nuclei to monitor chromatin changes during the process of CRISPR-Cas9 gene editing. An Alt-R® CRISPR-Cas9 2-part single guide RNA (sgRNA) system (IDT) was employed, which consists of 1) crRNA sequence to target the mEGFP locus in iPSCs (FIG. 1B), and 2) ATTO™ 550 fluorescent dye labelled tracrRNA that binds to Cas9. A range of TSA concentrations (0-200 ng/mL) were tested on iPSCs to determine the effect of TSA on cell viability. […] TSA concentrations of 0, 3.13, 6.25, and 12.5 ng/mL for further studies. Next, a range of TSA treatment durations (0-24 hours) were assessed and two methods for delivery for the Cas9 RNP complex (lipofection and electroporation) were also assessed to determine the optimal conditions for gene editing. […]
(In general: Flow cytometry measures light scatter and fluorescence of single cells or particles in a stream.)

Series [2] concerns iPSCs. Nature of the series: Single-cell ATAC sequencing, local chromatin accessibility. The conditions noted are these: upon TSA treatment, data not shown. The protocol: Briefly, 1,50,000 cells were added to a 2 mL microcentrifuge tube and centrifuged at 300 g for 45 min at 4° C. The supernatant was removed without disrupting the cell pellet, and 100 μL chilled Lysis Buffer (10 mM Tris-HCl (pH 7.4), 10 mM NaCl, 3 mM MgCl2, 0.1% Tween-20, 0.1% Nonidet® P40 Substitute, 0.01% digitonin and 1% BSA) was added and mixed 10 times. The microcentrifuge tube was then incubated on ice for 5 min. Following lysis, 1 ml chilled Wash Buffer (10 mM Tris-HCl (pH 7.4), 10 mM NaCl, 3 mM MgCl2, 0.1% Tween-20 and 1% BSA) was added and the resulting solution was mixed 5 times. Nuclei were centrifuged at 500 g for 5 min at 4° C. and the supernatant was removed without disrupting the nuclei pellet. Nuclei were resuspended in chilled Diluted Nuclei Buffer (10× Genomics; 2000153) at approximately 6,000 nuclei per μL. The resulting nuclei concentration was then determined with a Countess® II FL Automated Cell Counter using trypan blue inclusion. Nuclei were then immediately used to generate scATAC-seq libraries according to the Chromium Single Cell ATAC Reagent Kits User Guide v1.1 (10× Genomics; 000209 Rev D). Libraries were sequenced using the Illumina NovaSeq 6000 system using S1 flow cell and target depth of 30k-37k reads/nuclei. FASTQ files were aligned with Cellranger ATAC 2.0 to custom reference Human GRCh38 genome. […]

As to `CC(/C=C/C(=O)NO)=C\[C@@H](C)C(=O)c1ccc(N(C)C)cc1` [TSA, Trichostatin A], the iPSC morphology result in the series on iPSCs [1] is recorded as “no changes”. For the same compound, the “Gene editing efficiency (% GFP- cells/viable cells) upon TSA treatment” value with HIST1H2BJ-GFP locus (TSA 0-12.5 ng/mL, FIG. 1D) was “increases”. The “Increase in gene editing efficiency (% GFP- cells/viable cells)” value in the series with HIST1H2BJ-GFP locus (TSA 6.25 ng/mL, day 6 after Cas9 RNP delivery) is listed as 2-3 fold. In addition, the “Gene editing efficiency on additional increase of TSA concentration” value in the series on HIST1H2BJ-GFP locus (TSA 12.5 ng/mL vs 6.25 ng/mL) is recorded as “did not increase the editing efficiency further”. In addition, the “Increase in gene editing efficiency of iPSCs” value in the series on HIST1H2BJ-GFP locus (chromatin decondensation via TSA, summary statement) is 2-3 fold. Further, in the series with HIST1H2BJ-GFP locus (concentrations up to 6.25 ng/mL, day 6), the “Relation between gene editing efficiency (% GFP- cells/viable cells) and dose of TSA” value is given as “positive correlation”. Further, the “TSA treatment duration yielding the highest gene editing efficiencies” value with HIST1H2BJ-GFP locus (durations 0-24 hours assessed, data not shown) came out at 20 h. For the same compound, in the series on iPSCs [2], the “Local chromatin accessibility at the off-target sites” value is given as “no significant increase” and the “Local chromatin accessibility at the on-target sites” value was “increase”.
